20 compounds from US20240246935A1 (Plexium, Inc., priority 2021, published 2024) can be followed below.

Molecules are shown by their SMILES. A value given as a limit tells only on which side of the number the result lay.

The target of experiment [1] is human E3 ligase component cereblon (CRBN) (Homo sapiens (Human), UniProt Q96SW2). Put plainly: Cereblon (CRBN) target engagement, NanoBRET TE Intracellular E3 Ligase Assay in transfected HEK-293T cells. As to conditions: read-out: CRBN Binding EC50. The method in brief: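 Live HEK-293T cells co-transfected overnight with NanoLuc-CRBN (CRBN at NanoLuc C-terminus) and DDB1 vectors (10:990 ng) were given CRBN tracer and an 11-point compound series for 2 h at 37° C. BRET read at 450/610 nm with extracellular NanoLuc inhibitor present; IC50 from four-parameter logistic fit.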
human E3 ligase component cereblon (CRBN), sequence (Q96SW2 whole entry): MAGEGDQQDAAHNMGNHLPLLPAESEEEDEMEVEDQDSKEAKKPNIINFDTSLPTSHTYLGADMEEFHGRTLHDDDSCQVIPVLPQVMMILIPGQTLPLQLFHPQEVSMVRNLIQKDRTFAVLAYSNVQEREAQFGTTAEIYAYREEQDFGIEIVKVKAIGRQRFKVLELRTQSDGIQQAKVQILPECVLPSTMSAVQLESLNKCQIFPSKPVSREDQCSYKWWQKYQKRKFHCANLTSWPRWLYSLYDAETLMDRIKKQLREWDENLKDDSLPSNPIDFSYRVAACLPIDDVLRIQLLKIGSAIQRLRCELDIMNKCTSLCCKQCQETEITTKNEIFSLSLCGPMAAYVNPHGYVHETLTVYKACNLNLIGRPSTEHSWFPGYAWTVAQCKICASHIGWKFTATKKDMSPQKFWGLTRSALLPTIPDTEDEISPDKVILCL
human E3 ligase component cereblon (CRBN), sequence (Q16531 whole entry partner): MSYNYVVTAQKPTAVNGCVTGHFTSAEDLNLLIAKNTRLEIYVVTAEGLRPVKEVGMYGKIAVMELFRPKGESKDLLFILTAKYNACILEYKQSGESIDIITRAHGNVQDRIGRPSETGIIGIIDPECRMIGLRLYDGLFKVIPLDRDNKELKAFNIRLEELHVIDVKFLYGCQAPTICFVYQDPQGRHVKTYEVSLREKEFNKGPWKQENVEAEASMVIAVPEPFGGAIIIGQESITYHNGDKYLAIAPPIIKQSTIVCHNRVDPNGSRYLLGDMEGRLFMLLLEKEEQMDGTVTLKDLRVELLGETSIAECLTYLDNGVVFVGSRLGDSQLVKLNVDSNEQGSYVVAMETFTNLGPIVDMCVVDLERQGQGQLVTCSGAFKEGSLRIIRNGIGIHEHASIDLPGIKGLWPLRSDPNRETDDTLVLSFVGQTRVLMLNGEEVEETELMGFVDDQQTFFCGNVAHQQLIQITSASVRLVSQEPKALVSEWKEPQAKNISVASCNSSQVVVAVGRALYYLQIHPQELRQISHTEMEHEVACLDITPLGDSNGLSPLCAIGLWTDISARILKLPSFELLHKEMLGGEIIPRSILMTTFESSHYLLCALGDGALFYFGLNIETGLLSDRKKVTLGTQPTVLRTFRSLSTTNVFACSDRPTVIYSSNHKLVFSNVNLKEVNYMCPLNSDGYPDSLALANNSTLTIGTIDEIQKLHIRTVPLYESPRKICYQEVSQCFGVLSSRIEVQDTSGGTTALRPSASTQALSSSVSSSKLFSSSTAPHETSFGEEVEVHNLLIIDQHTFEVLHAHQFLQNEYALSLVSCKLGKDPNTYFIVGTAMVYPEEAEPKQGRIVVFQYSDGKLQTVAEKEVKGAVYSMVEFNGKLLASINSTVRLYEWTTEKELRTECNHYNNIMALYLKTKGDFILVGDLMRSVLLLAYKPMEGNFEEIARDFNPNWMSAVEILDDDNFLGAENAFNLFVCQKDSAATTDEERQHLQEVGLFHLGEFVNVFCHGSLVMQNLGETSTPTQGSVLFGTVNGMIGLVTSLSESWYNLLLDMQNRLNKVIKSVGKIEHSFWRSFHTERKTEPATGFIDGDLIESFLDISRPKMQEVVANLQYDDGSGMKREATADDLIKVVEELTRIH

The subject of another experiment is IKZF2 (Helios). Put plainly: IKZF2 reporter degradation assay (HEK 293T IKZF2-mNeonGreen reporter cell line). Particulars: 1 μM compound, 24 hour incubation, HEK 293T IKZF2-mNeonGreen reporter. The experiment is classed as cell-based, human. The method in brief: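 HEK 293T lines stably expressing each IKZF-GGGGS×3-mNeonGreen-P2A-mScarlet reporter, 4000 cells/well in FluoroBrite medium, treated with compound (≤0.5% DMSO) for 24 h at 37 °C. Imaging measured percent mNeonGreen-positive cells, with mScarlet used for segmentation; DC50 from four-parameter logistic fit.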

Consider `O=C1CCC(N2Cc3cc(OC4CCCCC4N4CC(c5ccccc5OC(F)(F)F)C4)ccc3C2=O)C(=O)N1` (stereo not shown) [Compound 68, 3-(1-oxo-5-((2-(3-(2-(trifluoromethoxy)phenyl)azetidin-1-yl)cyclohexyl)oxy)isoindolin-2-yl)piperidine-2,6-dione], for which, in experiment [1], the EC50 stood at 26 nM. Moreover, the “IKZF2 % Degradation @ 1 μM” value in the experiment on IKZF2 (Helios) is reported as 42.5%.
With `O=C1CCC(N2Cc3cc(O[C@H]4CCCC[C@@H]4N4CC(c5ccc(OC(F)F)cc5)C4)ccc3C2=O)C(=O)N1` (stereo partly drawn) [Compound 81, 3-(5-(((1S,2S)-2-(3-(4-(difluoromethoxy)phenyl)azetidin-1-yl)cyclohexyl)oxy)-1-oxoisoindolin-2-yl)piperidine-2,6-dione], in experiment [1], the EC50 was determined as 9 nM. For the same compound, the “IKZF2 % Degradation @ 1 μM” value in the experiment with IKZF2 (Helios) was found to be 77.6%.
For `N#Cc1ccc(C2CN([C@H]3CCCC[C@@H]3Oc3ccc4c(c3)CN(C3CCC(=O)NC3=O)C4=O)C2)c(Cl)c1` (single isomer, unassigned) [Compound 47], in that order: 5 nM and 86.7%.
As for `O=C1CCC(N2Cc3cc(O[C@H]4CCCC[C@@H]4N4CC(c5ccc(OC(F)(F)F)cc5)C4)ccc3C2=O)C(=O)N1` (mixture of isomers) [Compound 60, Rac-3-(1-oxo-5-(((trans)-2-(3-(4-(trifluoromethoxy)phenyl)azetidin-1-yl)cyclohexyl)oxy)isoindolin-2-yl)piperidine-2,6-dione], the EC50 in experiment [1] is 15 nM. Besides, the “IKZF2 % Degradation @ 1 μM” value in the experiment with IKZF2 (Helios) worked out at 84.9%.
For `O=C1CCC(N2Cc3cc(O[C@@H]4CCCC[C@@H]4N4CC(O)(c5ccccc5)C4)ccc3C2=O)C(=O)N1` (mixture of isomers) [Compound 97, Rac-3-(5-(((cis)-2-(3-hydroxy-3-phenylazetidin-1-yl)cyclohexyl)oxy)-1-oxoisoindolin-2-yl)piperidine-2,6-dione], in that order: 31 nM and below 15%.
In the case of `O=C1CCC(N2Cc3cc(O[C@H]4CCC[C@@H]4N4CCC(c5ccccc5)CC4)ccc3C2=O)C(=O)N1` (stereo partly drawn) [Compound 72, 3-(1-oxo-5-(((1S,2S)-2-(4-phenylpiperidin-1-yl)cyclopentyl)oxy)isoindolin-2-yl)piperidine-2,6-dione], the EC50 in experiment [1] stood at 7 nM. Further, the “IKZF2 % Degradation @ 1 μM” value in the experiment on IKZF2 (Helios) was 38.2%.
As to `N#Cc1cc(F)ccc1C1CN([C@@H]2CCCC[C@H]2Oc2ccc3c(c2)CN(C2CCC(=O)NC2=O)C3=O)C1` (single isomer, unassigned) [Compound 43], in experiment [1], the EC50 was determined as 42 nM. Further, the “IKZF2 % Degradation @ 1 μM” value in the experiment with IKZF2 (Helios) is listed as below 15%.
For `O=C1CCC(N2Cc3cc(O[C@H]4CCCC[C@@H]4N4CC(c5ccc(F)cc5)C4)ccc3C2=O)C(=O)N1` (stereo partly drawn) [Compound 123, 3-(5-(((1S,2S)-2-(3-(4-fluorophenyl)azetidin-1-yl)cyclohexyl)oxy)-1-oxoisoindolin-2-yl)piperidine-2,6-dione] the same measures were 11 nM and 74.4%.
As for `O=C1CCC(N2Cc3cc(O[C@H]4CCC[C@@H]4N4CC(c5ccccc5)C4)ccc3C2=O)C(=O)N1` (stereo partly drawn) [Compound 120, 3-(1-oxo-5-(((1S,2S)-2-(3-phenylazetidin-1-yl)cyclopentyl)oxy)isoindolin-2-yl)piperidine-2,6-dione], the EC50 in experiment [1] turned out to be 11 nM. In addition, in the experiment with IKZF2 (Helios), the “IKZF2 % Degradation @ 1 μM” value came out at 78.8%.
For the compound `N#Cc1cc(Cl)ccc1C1CN([C@H]2CCCC[C@@H]2Oc2ccc3c(c2)CN(C2CCC(=O)NC2=O)C3=O)C1` (mixture of isomers) [Compound 99, Rac-5-chloro-2-(1-((trans)-2-((2-(2,6-dioxopiperidin-3-yl)-1-oxoisoindolin-5-yl)oxy)cyclohexyl)azetidin-3-yl)benzonitrile], the EC50 in experiment [1] was found to be 44 nM. For the same compound, the “IKZF2 % Degradation @ 1 μM” value in the experiment with IKZF2 (Helios) amounted to 80.2%.
Consider `N#Cc1cc(F)ccc1C1CN([C@H]2CCCC[C@@H]2Oc2ccc3c(c2)CN(C2CCC(=O)NC2=O)C3=O)C1` (single isomer, unassigned) [Compound 45], for which, in experiment [1], the 50% effective concentration (EC50) is 22 nM. Besides, the “IKZF2 % Degradation @ 1 μM” value in the experiment with IKZF2 (Helios) is on record as 88%.
`O=C1CCC(N2Cc3cc(O[C@H]4CCC[C@@H]4N4CCC(c5ccccc5)C4)ccc3C2=O)C(=O)N1` (stereo partly drawn) [Compound 121, 3-(1-oxo-5-(((1S,2S)-2-(3-phenylpyrrolidin-1-yl)cyclopentyl)oxy)isoindolin-2-yl)piperidine-2,6-dione]: in experiment [1], the concentration for a half-maximal effect (EC50) was found to be 6 nM. Besides, the “IKZF2 % Degradation @ 1 μM” value with IKZF2 (Helios) came to 75.9%.
Consider `O=C1CCC(N2Cc3cc(OC4CCCCC4N4CC(c5ccccc5C(F)(F)F)C4)ccc3C2=O)C(=O)N1` (stereo not shown) [Compound 69, 3-(1-oxo-5-((2-(3-(2-(trifluoromethyl)phenyl)azetidin-1-yl)cyclohexyl)oxy)isoindolin-2-yl)piperidine-2,6-dione], for which the EC50 in experiment [1] is 25 nM. In addition, in the experiment on IKZF2 (Helios), the “IKZF2 % Degradation @ 1 μM” value is recorded as below 15%.
Regarding `N#Cc1ccc(C2CN([C@H]3CCCC[C@@H]3Oc3ccc4c(c3)CN(C3CCC(=O)NC3=O)C4=O)C2)c(Cl)c1` (mixture of isomers) [Compound 74, Rac-3-chloro-4-(1-((trans)-2-((2-(2,6-dioxopiperidin-3-yl)-1-oxoisoindolin-5-yl)oxy)cyclohexyl)azetidin-3-yl)benzonitrile], the EC50 in experiment [1] came out at 20 nM. Further, the “IKZF2 % Degradation @ 1 μM” value in the experiment with IKZF2 (Helios) is 63%.
Regarding `N#Cc1ccc(C2CN(C3CCCC3Oc3ccc4c(c3)CN(C3CCC(=O)NC3=O)C4=O)C2)cc1` (stereo not shown) [Compound 98, 4-(1-(2-((2-(2,6-dioxopiperidin-3-yl)-1-oxoisoindolin-5-yl)oxy)cyclopentyl)azetidin-3-yl)benzonitrile], the EC50 in experiment [1] was 32 nM. The “IKZF2 % Degradation @ 1 μM” value in the experiment with IKZF2 (Helios) is below 15%.
As for `O=C1CCC(N2Cc3cc(O[C@@H]4CCCC[C@@H]4N4CC(c5ccc(OC(F)(F)F)cc5)C4)ccc3C2=O)C(=O)N1` (mixture of isomers) [Compound 61, Rac-3-(1-oxo-5-(((cis)-2-(3-(4-(trifluoromethoxy)phenyl)azetidin-1-yl)cyclohexyl)oxy)isoindolin-2-yl)piperidine-2,6-dione], the EC50 in experiment [1] was 14 nM. Further, the “IKZF2 % Degradation @ 1 μM” value in the experiment with IKZF2 (Helios) is 36.3%.
As for `N#Cc1cc(Cl)ccc1C1CN([C@H]2CCC[C@H]2Oc2ccc3c(c2)CN(C2CCC(=O)NC2=O)C3=O)C1` (mixture of isomers) [Compound 84, Rac-5-chloro-2-(1-((cis)-2-((2-(2,6-dioxopiperidin-3-yl)-1-oxoisoindolin-5-yl)oxy)cyclopentyl)azetidin-3-yl)benzonitrile], the EC50 in experiment [1] was found to be 14 nM. Further, the “IKZF2 % Degradation @ 1 μM” value with IKZF2 (Helios) was below 15%.
As to `O=C1CCC(N2Cc3cc(O[C@H]4CCCC[C@@H]4N4CC(c5ccc(F)cc5)C4)ccc3C2=O)C(=O)N1` (single isomer, unassigned) [Compound 51], in experiment [1], the EC50 was 18 nM. In addition, in the experiment on IKZF2 (Helios), the “IKZF2 % Degradation @ 1 μM” value turned out to be 74.2%.
As for `O=C1CCC(N2Cc3cc(O[C@H]4CCCC[C@@H]4N4CCC(c5ccccc5)CC4)ccc3C2=O)C(=O)N1` (stereo partly drawn) [Compound 79, 3-(1-oxo-5-(((1S,2S)-2-(4-phenylpiperidin-1-yl)cyclohexyl)oxy)isoindolin-2-yl)piperidine-2,6-dione], the EC50 in experiment [1] was found to be 12 nM. Also, in the experiment with IKZF2 (Helios), the “IKZF2 % Degradation @ 1 μM” value was below 15%.
Take `O=C1CCC(N2Cc3cc(O[C@@H]4CCCC[C@H]4N4CCC4c4ccccc4)ccc3C2=O)C(=O)N1` (stereo partly drawn) [Compound 54, 3-(1-oxo-5-(((1R,2R)-2-(2-phenylazetidin-1-yl)cyclohexyl)oxy)isoindolin-2-yl)piperidine-2,6-dione]: the EC50 in experiment [1] turned out to be 89 nM. Moreover, in the experiment with IKZF2 (Helios), the “IKZF2 % Degradation @ 1 μM” value is on record as below 15%.

Usually EC50 stands for the midpoint of the concentration-response curve.
